Common to all, as to assay type: cell-based, human
Details in all cases: human, percentage of control cells

A short description of data set [1]: MTT viability assay, HPMCs. As to the method: (§1) Cell viability was assessed with the MTT test and with lactate dehydrogenase (LDH) release assay. As per the MTT method, normal and cancer cells were seeded into 96-well plates at high density and allowed to attach overnight. Then they were incubated in a medium containing 1.25 mg/mL of the MTT salt [3-(4,5-dimethylthiazol-2-yl)-2,5-diphenyltetrazolium bromide] for 24 h at 37°C. The generated formazan was solubilized with 20% sodium dodecyl sulphate and 50% N,N-dimethylformamide. Absorbance of the converted dye was recorded at 595 nm with a reference wavelength of 690 nm.
(§2) In order to examine the effect of 3,3′,4,4′-THS on the viability of ovarian cancer cells and to compare its activity with RVT, subconfluent cultures of A2780, OVCAR-3, and SKOV-3 cells were subjected to a wide range of stilbene concentrations (0–500 μM) for 24 h; then MTT and LDH release assays were performed.
For orientation: Tetrazolium assays rely on reduction of a dye to a coloured formazan, in cell work by metabolically active cells.

Data set [2] in a line: MTT viability assay, HOSE cells. As to the method: as §1, §2
The nature of data set [3]: LDH release assay, HOSE cells. On the technique in general: LDH in the medium is a marker of cell lysis.

As a reminder, the viability is a read-out of living cells in per cent, often relative to untreated cells.

Consider `Oc1ccc(/C=C/c2ccc(O)c(O)c2)cc1O` [3,3′,4,4′-THS, 3,3′,4,4′-tetrahydroxy-trans-stilbene], for which the figures for the viability at 24 h, 10 µM in data set [1] (10 μM), in data set [2] (10 μM) and in data set [3] (10 μM) were 108 ± 14%, 105 ± 2% and 101 ± 2%, respectively. Further, the viability at 24 h, 50 µM in data set [1] (50 μM), in data set [2] (50 μM) and in data set [3] (50 μM) was 100 ± 4% in each case. Further, the results for the viability at 24 h, 100 µM in data set [1] (100 μM), in data set [2] (100 μM) and in data set [3] (100 μM) were 102 ± 2%, 107 ± 2% and 102 ± 2%, respectively.

For the origin of these results see article PMC4502315, “High Potency of a Novel Resveratrol Derivative, 3,3′,4,4′-Tetrahydroxy-trans-stilbene, against Ovarian Cancer Is Associated with an Oxidative Stress-Mediated Imbalance between DNA Damage Accumulation and Repair” (Oxidative Medicine and Cellular Longevity, 2015).
